What follows are molecules tested against T1, F508del CFTR (Homo sapiens, UniProt P13569, DEL508-508) (assay: Equivalent current assay in primary CF airway epithelial cells (Corrector Activity, NAUC normalized to 3 μM VX809)). Conditions: NAUC as % of positive control (VX-809).
T1 construct: Primary CF airway epithelial cells were obtained from the UNC Cystic Fibrosis Tissue Procurement and Cell Culture Core; host or cells: primary CF airway epithelial cells
Format: cell-based
In short: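 Readout is NAUC: current area from forskolin/potentiator addition until CFTR-172, minus vehicle, relative to 3 μM VX809 (=1.0). Cells were primary CF epithelia at air-liquid interface ≥4 weeks, given basolateral compound for 24 h at 37° C; median of n≥4 replicates, sigmoid fit with nH fixed at 1.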

T1 sequence (P13569 with tags, fused parts or gaps DEL508-508): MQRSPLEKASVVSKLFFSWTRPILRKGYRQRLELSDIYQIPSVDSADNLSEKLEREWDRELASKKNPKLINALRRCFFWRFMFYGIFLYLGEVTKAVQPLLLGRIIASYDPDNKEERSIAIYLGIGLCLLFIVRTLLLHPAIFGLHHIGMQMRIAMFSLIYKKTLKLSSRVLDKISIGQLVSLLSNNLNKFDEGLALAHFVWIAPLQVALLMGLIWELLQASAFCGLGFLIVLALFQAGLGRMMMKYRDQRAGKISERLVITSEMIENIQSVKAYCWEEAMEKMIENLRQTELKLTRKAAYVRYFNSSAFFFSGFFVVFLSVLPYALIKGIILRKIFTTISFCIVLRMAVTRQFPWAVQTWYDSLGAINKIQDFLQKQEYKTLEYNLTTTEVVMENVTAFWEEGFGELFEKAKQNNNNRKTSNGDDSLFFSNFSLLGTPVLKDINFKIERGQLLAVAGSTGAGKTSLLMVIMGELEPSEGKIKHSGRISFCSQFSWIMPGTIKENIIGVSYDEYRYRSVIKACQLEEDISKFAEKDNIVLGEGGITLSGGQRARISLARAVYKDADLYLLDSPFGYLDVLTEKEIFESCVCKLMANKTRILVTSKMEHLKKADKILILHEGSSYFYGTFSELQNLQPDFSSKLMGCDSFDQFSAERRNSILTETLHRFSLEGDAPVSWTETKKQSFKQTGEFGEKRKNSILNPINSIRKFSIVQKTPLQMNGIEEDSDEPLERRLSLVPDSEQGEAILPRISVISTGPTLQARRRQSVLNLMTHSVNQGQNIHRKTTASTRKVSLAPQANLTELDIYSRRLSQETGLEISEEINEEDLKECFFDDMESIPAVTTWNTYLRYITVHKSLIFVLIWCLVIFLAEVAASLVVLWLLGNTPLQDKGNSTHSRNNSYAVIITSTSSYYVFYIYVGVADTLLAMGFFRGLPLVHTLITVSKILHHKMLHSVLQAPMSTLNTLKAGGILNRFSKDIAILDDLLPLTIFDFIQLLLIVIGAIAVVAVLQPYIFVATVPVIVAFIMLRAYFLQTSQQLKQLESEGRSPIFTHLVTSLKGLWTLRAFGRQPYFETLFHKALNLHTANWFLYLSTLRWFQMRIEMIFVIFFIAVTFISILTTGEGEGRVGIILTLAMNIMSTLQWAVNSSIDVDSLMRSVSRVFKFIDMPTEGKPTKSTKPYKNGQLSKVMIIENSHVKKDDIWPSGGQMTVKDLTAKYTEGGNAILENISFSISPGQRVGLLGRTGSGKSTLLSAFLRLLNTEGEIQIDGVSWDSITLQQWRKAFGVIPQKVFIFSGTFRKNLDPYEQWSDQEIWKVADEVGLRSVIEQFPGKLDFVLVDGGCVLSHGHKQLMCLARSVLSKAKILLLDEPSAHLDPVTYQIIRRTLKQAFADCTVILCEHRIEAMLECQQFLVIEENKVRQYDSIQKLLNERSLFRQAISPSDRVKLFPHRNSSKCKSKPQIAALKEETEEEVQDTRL

Compound	Corr Activity (NAUC)
CCN(C(=O)Cn1nc(-c2cccc(Cl)c2)c2sccc2c1=O)c1ccc2nc(C)oc2c1 [Example 4]	+++ (NAUC>70% of positive control)
CCN(C(=O)Cn1nc(-c2cc(F)cc(OCC(C)C)c2)c2[nH]cnc2c1=O)c1ccc2c(c1)OC(F)(F)O2 [Example 264]	++ (NAUC 70-40% of positive control)
CCN(C(=O)Cn1nc(-c2cc(F)cc(F)c2)c2[nH]cnc2c1=O)c1ccc2c(c1)OC(F)(F)O2 [Example 258]	+++ (NAUC>70% of positive control)
CN(C(=O)Cn1nc(-c2cccc(C#N)c2)c2oc(C(F)F)cc2c1=O)c1ccc2c(c1F)OC(F)(F)O2 [Example 197]	+++ (NAUC>70% of positive control)
CCN(C(=O)Cn1nc(-c2cccc(OC(C)(C)C)c2)c2oc(C(=O)NC(C)(C)C)cc2c1=O)c1ccc2c(c1)OC(F)(F)O2 [Example 122]	++ (NAUC 70-40% of positive control)
CCN(C(=O)Cn1nc(-c2cccc(C#N)c2)c2oc(CN3CCCC3)cc2c1=O)c1ccc2c(c1)OC(F)(F)O2 [Example 203]	+++ (NAUC>70% of positive control)
Cc1cc2c(cc1N(C)C(=O)Cn1nc(-c3cc(F)cc(C#N)c3)c3occ(C(F)(F)F)c3c1=O)OC(F)(F)O2 [Example 178]	+ (NAUC<40% of positive control)
CCN(C(=O)Cn1nc(-c2cccc(C#N)c2)c2occc2c1=O)c1ccc(C(F)(F)F)cc1 [Example 61]	+ (NAUC<40% of positive control)
CCN(C(=O)Cn1nc(-c2cc(C)cc(Cl)c2)c2[nH]cnc2c1=O)c1ccc2c(c1)OC(F)(F)O2 [Example 269]	+++ (NAUC>70% of positive control)
CCN(C(=O)Cn1nc(-c2cccc(F)c2)c2c(c1=O)CCC2)c1ccc2nc(C)oc2c1 [Example 43]	+++ (NAUC>70% of positive control)
CCN(C(=O)Cn1nc(-c2cc(F)cc(C#N)c2)c2oc(C(=O)NC(C)(C)C)cc2c1=O)c1cc2c(cc1C)OC(F)(F)O2 [Example 136]	+++ (NAUC>70% of positive control)
Cc1nc2ccc(N(C)C(=O)Cn3nc(-c4cccc(C#N)c4)c4oc5ccccc5c4c3=O)cc2o1 [Example 158]	+++ (NAUC>70% of positive control)
CCN(C(=O)Cn1nc(-c2cc(C#N)cc(C(F)F)c2)c2occc2c1=O)c1ccc2c(c1)OC(F)(F)O2 [Example 99]	+++ (NAUC>70% of positive control)
CCN(C(=O)Cn1nc(-c2cc(F)cc(F)c2)c2oc(C3CC3)cc2c1=O)c1ccc2c(c1)OC(F)(F)O2 [Example 222]	+++ (NAUC>70% of positive control)
CCN(C(=O)Cn1nc(-c2cc(C)cc(OC)c2)c2[nH]cnc2c1=O)c1ccc2c(c1)OC(F)(F)O2 [Example 272]	+ (NAUC<40% of positive control)
CCN(C(=O)Cn1nc(-c2cc(F)cc(Cl)c2)c2oc(C)cc2c1=O)c1ccc2c(c1)OC(F)(F)O2 [Example 75]	+++ (NAUC>70% of positive control)
Cc1cc(C#N)cc(-c2nn(CC(=O)N(C)c3ccc4c(c3)OC(F)(F)O4)c(=O)c3cc(C(=O)NC(C)(C)C)oc23)c1 [Example 132]	+++ (NAUC>70% of positive control)
Cc1cc2c(=O)n(CC(=O)N(C)c3ccc4c(c3)OC(F)(F)O4)nc(-c3cc(Cl)cc(C#N)c3)c2o1 [Example 72]	+++ (NAUC>70% of positive control)
CCN(C(=O)Cn1nc(-c2cc(C#N)cc(C(C)(C)C)c2)c2oc(C(F)F)cc2c1=O)c1ccc2c(c1)OC(F)(F)O2 [Example 188]	+++ (NAUC>70% of positive control)
CCN(C(=O)Cn1nc(-c2cc(C)cc(C#N)c2)c2oc(C(=O)NC3(C(F)(F)F)CC3)cc2c1=O)c1cc2c(cc1C)OC(F)(F)O2 [Example 154]	+++ (NAUC>70% of positive control)
CCN(C(=O)Cn1nc(-c2cc(F)cc(C#N)c2)c2occc2c1=O)c1ccc2c(c1C)OC(F)(F)O2 [Example 173]	+++ (NAUC>70% of positive control)
CCN(C(=O)Cn1nc(-c2cc(Cl)cc(Cl)c2)c2oc(C)cc2c1=O)c1ccc2c(c1)OC(F)(F)O2 [Example 73]	+++ (NAUC>70% of positive control)
CCN(C(=O)Cn1nc(-c2cc(Cl)cc(C#N)c2)c2oc(C(=O)NC(C)(C)C)cc2c1=O)c1ccc2c(c1C)OC(F)(F)O2 [Example 142]	++ (NAUC 70-40% of positive control)

The remaining lines, values ahead:

Corr Activity (NAUC)	Compound
+ (NAUC<40% of positive control)	O=C(Cn1nc(-c2cccc(F)c2)c2[nH]cnc2c1=O)N(c1ccc2c(c1)OC(F)(F)O2)C1CC1 [Example 370]
+ (NAUC<40% of positive control)	CCN(C(=O)Cn1nc(-c2ccc3ocnc3c2)c2[nH]cnc2c1=O)c1ccc2c(c1)OC(F)(F)O2 [Example 303]
++ (NAUC 70-40% of positive control)	COc1ccc2cc(-c3nn(CC(=O)N(c4ccc5c(c4)OC(F)(F)O5)C4CC4)c(=O)c4nc[nH]c34)ccc2c1 [Example 412]
+ (NAUC<40% of positive control)	CCN(C(=O)Cn1nc(-c2ccc3c(cnn3C(C)C)c2)c2[nH]cnc2c1=O)c1ccc2c(c1)OC(F)(F)O2 [Example 310]
++ (NAUC 70-40% of positive control)	N#Cc1cc(-c2nn(CC(=O)N(c3ccc4c(c3)OC(F)(F)O4)C3CC3)c(=O)c3nc[nH]c23)ccc1OC(F)(F)F [Example 483]
+ (NAUC<40% of positive control)	CCN(C(=O)Cn1nc(-c2ccc(-c3ccccc3)c(F)c2)c2[nH]cnc2c1=O)c1ccc2c(c1)OC(F)(F)O2 [Example 319]
++ (NAUC 70-40% of positive control)	COc1cc(F)cc(-c2nn(CC(=O)N(c3ccc4c(c3)OC(F)(F)O4)C3CC3)c(=O)c3nc[nH]c23)c1 [Example 383]
++ (NAUC 70-40% of positive control)	CCN(C(=O)Cn1nc(-c2cccc(Cl)c2)c2cn[nH]c2c1=O)c1ccc2c(c1)OC(F)(F)O2 [Example 496]
++ (NAUC 70-40% of positive control)	COc1cc(C#N)cc(-c2nn(CC(=O)N(c3ccc4c(c3)OC(F)(F)O4)C3CC3)c(=O)c3nc[nH]c23)c1 [Example 409]
+ (NAUC<40% of positive control)	CC(C)Oc1cc(-c2nn(CC(=O)N(c3ccc4c(c3)OC(F)(F)O4)C3CC3)c(=O)c3nc[nH]c23)cc(C(F)(F)F)c1 [Example 377]
+ (NAUC<40% of positive control)	CCN(C(=O)Cn1nc(-c2ccc(Cl)c(OC)c2)c2[nH]cnc2c1=O)c1ccc2c(c1)OC(F)(F)O2 [Example 329]
++ (NAUC 70-40% of positive control)	CCN(C(=O)Cn1nc(-c2cccc(C#N)c2)c2cn[nH]c2c1=O)c1ccc2c(c1)OC(F)(F)O2 [Example 493, 2-(4-(3-cyanophenyl)-7-oxo-1,7-dihydro-6H-pyrazolo[3,4-d]pyridazin-6-yl)-N-(2,2-difluorobenzo[d][1,3]dioxol-5-yl)-N-ethylacetamide]
++ (NAUC 70-40% of positive control)	N#Cc1cc(-c2nn(CC(=O)N(c3ccc4c(c3)OC(F)(F)O4)C3CC3)c(=O)c3nc[nH]c23)ccc1N1CCC1 [Example 487]
+ (NAUC<40% of positive control)	CN(C(=O)Cn1nc(-c2cccc(Cl)c2)c2cn[nH]c2c1=O)c1ccc2c(c1)OC(F)(F)O2 [Example 498]
++ (NAUC 70-40% of positive control)	COc1cc(Cl)cc(-c2nn(CC(=O)N(c3ccc4c(c3)OC(F)(F)O4)C3CC3)c(=O)c3nc[nH]c23)c1 [Example 379]

— US20220402925A1, “COMPOUNDS AND METHODS FOR THE TREATMENT OF CYSTIC FIBROSIS” (Flatley Discovery Lab, LLC, priority 2019, published 2022)
